According to ChEMBL document CHEMBL1126104, “Synthesis and antiviral activity of some new S-adenosyl-L-homocysteine derivatives” (1992):
Converted amounts (≈) assume the structure as drawn.

Experiments:
[1] = system: Mammalian orthoreovirus 1; experiment: Antiviral activity against reovirus type 1 in Vero cell culture lines; format: functional
Coxsackievirus B4 [2] = experiment: Antiviral activity against coxsackie B4 in Vero cell culture lines; format: functional; settings: Enterovirus B
Semliki Forest virus = experiment: Antiviral activity against semliki forest virus (SFV) in Vero cell culture lines; format: functional
Vaccinia virus = experiment: Antiviral activity against vaccinia virus (VV) in primary rabbit kidney (PRK) / embryonic skin-muscle (E6SM) fibroblast culture lines; format: functional; settings: Orthopoxvirus vaccinia, Muscle tissue
Human alphaherpesvirus 1 = experiment: Antiviral activity against HSV-1(KOS) strain in primary rabbit kidney (PRK) / embryonic skin-muscle (E6SM) fibroblast culture lines; format: functional; settings: Human alphaherpesvirus 1, Muscle tissue
Sindbis virus = experiment: Antiviral activity against sindbis virus in Vero cell culture lines; format: functional
[3] = system: Vesicular stomatitis virus; experiment: Antiviral activity against vesicular stomatitis virus (VSV) in HeLa cell culture lines,; format: functional
[4] = system: Human immunodeficiency virus 1; experiment: Antiviral activity against (HIV-1) in MT-4 cells Value in parentheses is inhibitory concentration for cell growth (MT-4); format: functional, MT4
Poliovirus 1 = experiment: Antiviral activity against polio virus type 1 in HeLa cell culture lines; format: functional; settings: Enterovirus C
Coxsackievirus B4 [5] = experiment: Antiviral activity against coxsackie B4 virus in HeLa cell culture lines; format: functional; settings: Enterovirus B
Human alphaherpesvirus 2 = experiment: Antiviral activity against HSV-2(G) strain in primary rabbit kidney (PRK) / embryonic skin-muscle (E6SM) fibroblast culture lines; format: functional; settings: Human alphaherpesvirus 2, Muscle tissue
[6] = system: Vesicular stomatitis virus; experiment: Antiviral activity against vesicular stomatitis virus (VSV) in primary rabbit kidney (PRK) / embryonic skin-muscle (E6SM) fibroblast culture lines; format: functional; settings: Muscle tissue
Human respirovirus 3 = experiment: Antiviral activity against parainfluenza virus type 3 in Vero cell culture lines; format: functional

Row | SMILES | MIC [1] | MIC (Coxsackievirus B4 [2]) | MIC (Semliki Forest virus) | MIC (Vaccinia virus) | MIC (Human alphaherpesvirus 1) | MIC (Sindbis virus) | MIC [3] | MIC [4] | MIC (Poliovirus 1) | MIC (Coxsackievirus B4 [5]) | MIC (Human alphaherpesvirus 2) | MIC [6] | MIC (Human respirovirus 3)
1 | Nc1ncnc2c1ncn2[C@H]1C[C@H](O)[C@@H](CO)O1 [DEOXYADENOSINE] | > 200 mg/L | > 200 mg/L | > 200 mg/L | 150 mg/L (≈ 597 µM) | > 150 mg/L | > 200 mg/L | > 200 mg/L | > 20 mg/L | > 200 mg/L | > 200 mg/L | 100 mg/L (≈ 398 µM) | > 200 mg/L | > 200 mg/L
2 | Nc1nccc2ncn([C@H]3C[C@H](O)[C@@H](CO)O3)c12 | > 400 mg/L | > 400 mg/L | > 400 mg/L | > 200 mg/L | 150 mg/L (≈ 599 µM) | > 400 mg/L | > 200 mg/L | > 50 mg/L | > 200 mg/L | > 200 mg/L | 100 mg/L (≈ 400 µM) | > 200 mg/L | > 400 mg/L
3 | CC(C)(C)C(=O)ONC(CCSC[C@H]1OC(n2ccc3c(N)ncnc32)[C@H](O)[C@@H]1O)C(=O)O (some centres not stated) | > 400 mg/L | > 400 mg/L | > 400 mg/L | 20 mg/L (≈ 41.4 µM) | > 100 mg/L | > 400 mg/L | > 400 mg/L | > 200 mg/L | > 400 mg/L | > 400 mg/L | > 100 mg/L | > 100 mg/L | > 400 mg/L
4 | CC(C)(C)C(=O)OCn1nc([C@@H]2O[C@H](CO)C[C@H]2O)c2ncnc(N)c21 | > 100 mg/L | > 100 mg/L | > 100 mg/L | > 100 mg/L | > 100 mg/L | > 100 mg/L | > 100 mg/L | > 20 mg/L | > 100 mg/L | > 100 mg/L | > 100 mg/L | > 100 mg/L | > 100 mg/L
5 | CCOC(=O)C(CCSC[C@H]1OC(n2ccc3c(N)ncnc32)[C@H](O)[C@@H]1O)NC(C)=O (some centres not stated) | > 30 mg/L | 20 mg/L (≈ 44.1 µM) | > 100 mg/L | 15 mg/L (≈ 33.1 µM) | 70 mg/L (≈ 154 µM) | > 70 mg/L | > 20 mg/L | > 4 mg/L | 70 mg/L (≈ 154 µM) | 70 mg/L (≈ 154 µM) | 20 mg/L (≈ 44.1 µM) | 5 mg/L (≈ 11 µM) | > 40 mg/L
6 | Nc1ncnc2c1ccn2C1O[C@H](CSCCC(NC(=O)C(F)(F)F)C(=O)O)[C@@H](O)[C@H]1O (some centres not stated) | > 400 mg/L | > 400 mg/L | > 400 mg/L | 20 mg/L (≈ 41.7 µM) | > 200 mg/L | > 400 mg/L | > 400 mg/L | > 20 mg/L | > 400 mg/L | > 400 mg/L | > 200 mg/L | > 200 mg/L | > 400 mg/L
7 | Nc1nccc2c1ncn2[C@@H]1O[C@H](CSCCC(N)C(=O)O)C[C@H]1O (some centres not stated) | > 400 mg/L | > 400 mg/L | > 400 mg/L | > 400 mg/L | > 400 mg/L | > 400 mg/L | > 400 mg/L | > 100 mg/L | > 400 mg/L | > 400 mg/L | > 400 mg/L | > 200 mg/L | > 400 mg/L
8 | COCC(=O)NC(CCSC[C@H]1OC(n2ccc3c(N)ncnc32)[C@H](O)[C@@H]1O)C(=O)OC(C)C (some centres not stated) | > 200 mg/L | > 100 mg/L | > 200 mg/L | 7 mg/L (≈ 14.1 µM) | > 150 mg/L | > 200 mg/L | 100 mg/L (≈ 201 µM) | > 100 mg/L | > 200 mg/L | > 200 mg/L | 70 mg/L (≈ 141 µM) | 20 mg/L (≈ 40.2 µM) | > 200 mg/L
9 | Nc1nccc2c1ncn2[C@H]1CC[C@@H](CO)O1 | > 100 mg/L | > 100 mg/L | > 100 mg/L | > 100 mg/L | > 200 mg/L | > 100 mg/L | > 200 mg/L | > 100 mg/L | > 200 mg/L | > 200 mg/L | > 100 mg/L | > 100 mg/L | > 100 mg/L
10 | CC(C)(C)C(=O)ONC(CCSC[C@H]1OC(n2ccc3c(N)ncnc32)[C@H](O)[C@@H]1O)C(=O)OCC[Si](C)(C)C (some centres not stated) | > 40 mg/L | 70 mg/L (≈ 120 µM) | > 40 mg/L | 2 mg/L (≈ 3.43 µM) | > 10 mg/L | > 40 mg/L | > 40 mg/L | > 8 mg/L | > 40 mg/L | > 40 mg/L | > 10 mg/L | > 10 mg/L | > 40 mg/L
11 | Nc1ncnc2c([C@@H]3O[C@H](CSCCC(N)C(=O)O)C[C@H]3O)n[nH]c12 (some centres not stated) | > 40 mg/L | > 40 mg/L | > 40 mg/L | > 40 mg/L | > 40 mg/L | > 40 mg/L | > 40 mg/L | > 100 mg/L | > 40 mg/L | > 40 mg/L | > 40 mg/L | > 40 mg/L | > 40 mg/L
12 | CCCCOC(=O)C(N)CCSC[C@H]1OC(n2ccc3c(N)ncnc32)[C@H](O)[C@@H]1O (some centres not stated) | 70 mg/L (≈ 159 µM) | > 200 mg/L | > 200 mg/L | 2 mg/L (≈ 4.55 µM) | 20 mg/L (≈ 45.5 µM) | > 200 mg/L | 7 mg/L (≈ 15.9 µM) | > 1.6 mg/L | > 100 mg/L | > 40 mg/L | > 10 mg/L | 20 mg/L (≈ 45.5 µM) | 150 mg/L (≈ 341 µM)
13 | Nc1ncnc2c1ncn2[C@@H]1O[C@H](CSCCC(N)C(=O)O)C[C@H]1O (some centres not stated) | > 200 mg/L | > 200 mg/L | > 100 mg/L | > 200 mg/L | > 100 mg/L | > 200 mg/L | > 200 mg/L | > 100 mg/L | > 200 mg/L | > 200 mg/L | > 100 mg/L | > 100 mg/L | > 200 mg/L
14 | Nc1ncnc2c1ncn2[C@@H]1O[C@H](CO)C[C@H]1O [CORDYCEPIN] | > 100 mg/L | > 100 mg/L | > 100 mg/L | > 100 mg/L | > 40 mg/L | > 100 mg/L | > 100 mg/L | > 4 mg/L | > 100 mg/L | > 100 mg/L | > 40 mg/L | > 40 mg/L | > 100 mg/L
